# Experimental data as given in patent US10973748B2, “Compositions and methods for lightening skin and reducing hyperpigmentation” (Versitech Limited, priority 2016, dated 2021).
# Experiments:
# tyrosinase [1] = biological target: T1, tyrosinase (Mus musculus, UniProt P11344); experiment: Cellular tyrosinase activity assay (L-DOPA oxidation in cell lysates); type: cell-based, murine; conditions: melan-a cells, α-MSH, 72 hrs; 6-CEPN 10 or 20 μM, 8-CEPQ 2.5 or 5 μM
# T1 construct: endogenous in cells; host or cells: melan-a cells
# T1 sequence (P11344 19-533): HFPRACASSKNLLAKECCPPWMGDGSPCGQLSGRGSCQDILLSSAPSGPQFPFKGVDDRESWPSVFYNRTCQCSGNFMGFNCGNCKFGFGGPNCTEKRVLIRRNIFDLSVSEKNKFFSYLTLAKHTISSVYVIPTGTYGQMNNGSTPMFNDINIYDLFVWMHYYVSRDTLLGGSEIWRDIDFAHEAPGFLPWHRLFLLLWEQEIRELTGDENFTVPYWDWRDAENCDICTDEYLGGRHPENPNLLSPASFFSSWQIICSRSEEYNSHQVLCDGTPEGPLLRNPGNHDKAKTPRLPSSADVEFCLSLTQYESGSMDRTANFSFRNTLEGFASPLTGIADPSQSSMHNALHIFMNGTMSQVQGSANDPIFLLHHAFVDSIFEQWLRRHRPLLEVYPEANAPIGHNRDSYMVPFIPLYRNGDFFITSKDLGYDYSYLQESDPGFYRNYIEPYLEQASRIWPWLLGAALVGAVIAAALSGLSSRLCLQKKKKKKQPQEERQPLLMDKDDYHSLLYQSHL
# Experimental: Cellular tyrosinase activity was determined by measuring the oxidation of L-3,4-dihydroxyphenylalanine (L-DOPA) to dopachrome in cell lysates. Melan-a cells (1.5×10^5 cells/well) were plated in 1 mL of culture medium in a 24-well multidishes for at least 24 hrs prior to use. The cells were treated with α-MSH (1 μM) alone or with α-MSH plus different concentrations of testing agents for 72 hrs. The cells were washed with cold PBS and lysed in 900 μL of PBS with 1% Triton X-100. After being freeze-thawed at −80° C. for 30 min followed by 25° C. for 30 min, 100 μL of 10 mM L-DOPA was then added to each well. Following incubation at 37° C. for 1 hr, the absorbance of the agents was measured at 490 nm using Victor X4 Multilabel Plate Reader (PerkinElmer, Mass., USA).
# tyrosinase [2] = experiment: Western blotting of tyrosinase protein level in melan-a cells; type: cell-based, murine; conditions: α-MSH, 72 hrs, 20 μM
# Experimental: (§1) Melan-a cells (3×10^5 cells/well) were seeded in 4 mL of culture medium in a 6-well plate for at least 24 hrs prior to use. The cells were treated with α-MSH (1 μM) alone, α-MSH plus plus different concentration of agents for 72 hrs. The cells were washed with cold PBS and then lysed in 100 μL of RIPA buffer containing 1% Nonidet P-40, 0.1% sodium dodecylsulfate, 0.5% sodium deoxycholate, and 2% protease inhibitor at 4° C. Samples were centrifuged at 14,000 rpm for 30 mins at 4° C., and total proteins in the supernatant were separated. 10 μg of denatured proteins were loaded per lane, and separated by 10% SDS-PAGE gel. Proteins were then transferred to Immobilon-P Transfer Membranes (Millipore Co., Bed-ford, Mass.) by semidry transfer. Membranes were incubated with primary antibodies specific for Tyrosinase, tyrosinase-related protein-1 (TRP1), tyrosinase-related protein-2 (TRP2), and microphthalmia-associated transcription factor (MITF). The blots were subsequently washed and incubated with the appropriate secondary antibodies. Immunoreactive protein bands were visualized with enhanced chemiluminescence western blotting detection reagents and quantified using an ODYSSEY Fc Imaging system. The amounts of protein loaded were normalized against a control protein, β-actin.
# [3] = test system: microphthalmia-associated transcription factor (MITF); experiment: Western blotting of MITF expression in melan-a cells; type: cell-based, murine; conditions: α-MSH, 72 hrs, 20 μM
# Experimental: as §1
# [4] = test system: MelanoDerm (Mel-300-A) epidermal equivalents containing melanocytes; experiment: Tissue viability of artificial skin model (CCK-8); type: cell-based, human; conditions: whole treatment period (14 days), rapamycin 2.5 μM, 6-CEPN 10 μM, 8-CEPQ 5 μM
# Experimental: Epidermal equivalents containing melanocytes (Mel-300-A) were maintained according to the manufacturer's instructions. Mel-300-A tissue was cultured in EPI-100-NMM-113 medium for 14 days. Agents were dissolved in tissue culture medium and changed every other day. The test agents were either (1) rapamycin (2.5 μM), as the positive control in depigmentation, (2) 6-CEPN (10 μM), or (3) 8-CEPQ (5 μM). The concentration of rapamycin used was lower than 6-CEPN and 8-CEPQ, as rapamycin is toxic to cells at higher concentration. Pigmentation of these skin equivalents was compared against treatment of cells with a culture medium only (denoted as “vehicle”). Tissue viability was assessed on day 14 by CCK-8 assay as described in Example 1. On day 14, single tissues were harvested and photographed. The L* parameter was used to evaluate skin lightening or darkening. The lighter the skin, the greater the L* value. ΔL* value was measured by a Chroma Meter CR400 (Konica Minolta) for an evaluation of lightening as a function of time. Three tissues for each treatment were frozen for the Solvable Melanin assay (Bessou-Touya et al., “Chimeric human epidermal reconstructs to study the role of melanocytes and keratinocytes in pigmentation and photoprotection.” Journal of investigative dermatology 111(6):1103-1108 (1998)). Additional tissues were fixed by 10% formanin. For melanin staining in paraffin-embedded tissues, Fontana-Masson silver staining was used as previously detailed (Barbosa et al., “A simple and economical modification of the Masson-Fontana method for staining melanin granules and enterochromaffin cells.” Stain technology 59(4):193-196 (1984)).
structure (smiles),measurement,setting,value
"O=C1C[C@@H](c2ccc(O)cc2)Oc2cc(O)c(/C=C/c3ccccc3)c(O)c21 [6-CEPN, 6-C-(E-phenylethenyl)-naringenin]",tyrosinase activity,tyrosinase [1],significant inhibition on tyrosinase activity in a dose-dependent manner
same,protein level of tyrosinase,tyrosinase [2],significantly suppressed
same,expression of MITF,[3],no clear inhibition
same,cytotoxicity (tissue viability),[4],without significant cytotoxicity
